Experimental data from ChEMBL document CHEMBL1153384, “Synthesis, antimalarial activity, and preclinical pharmacology of a novel series of 4'-fluoro and 4'-chloro analogues of amodiaquine. Identification of a suitable "back-up" compound for N-tert-butyl isoquine” (J Med Chem, 2009).

How the values were obtained:
[1] = system: Plasmodium falciparum; assay: Antimalarial activity against chloroquine-sensitive Plasmodium falciparum 3D7; type: functional, organism-based
[2] = system: Plasmodium falciparum; assay: Antimalarial activity against chloroquine-sensitive Plasmodium falciparum HB3; type: functional, organism-based
[3] = system: Plasmodium falciparum; assay: Antimalarial activity against […] Plasmodium falciparum PH3; type: functional, organism-based
[4] = system: Plasmodium falciparum; assay: Antimalarial activity against chloroquine-resistant Plasmodium falciparum TM4; type: functional, organism-based
[5] = system: Plasmodium falciparum; assay: Antimalarial activity against […] Plasmodium falciparum Dd2; type: functional, organism-based
[6] = Partition coefficient, log P of the compound; type: physicochemical; conditions: octanol/water
[7] = Biodistribution in cannulated Wistar rat bile assessed as [3H]labeled drug level at 54 umol/kg, iv after 5 hrs; type: ADME, organism-based; conditions: in vivo
[8] = Biodistribution in cannulated Wistar rat urine assessed as [3H]labeled drug level at 54 umol/kg, iv after 5 hrs; type: ADME, organism-based; conditions: in vivo
[9] = system: Zone of skin; assay: Biodistribution in cannulated Wistar rat skin assessed as [3H]labeled drug level at 54 umol/kg, iv after 5 hrs; type: ADME, organism-based; conditions: in vivo
[10] = system: Kidney; assay: Biodistribution in cannulated Wistar rat kidney assessed as [3H]labeled drug level at 54 umol/kg, iv after 5 hrs; type: ADME, organism-based; conditions: in vivo
[11] = system: Kidney; assay: Biodistribution in Wistar rat kidney assessed as [3H]labeled drug level at 54 umol/kg, iv after 24 hrs; type: ADME, organism-based; conditions: in vivo
[12] = system: Liver; assay: Biodistribution in Wistar rat liver assessed as [3H]labeled drug level at 54 umol/kg, iv after 24 hrs; type: ADME, organism-based; conditions: in vivo
[13] = system: Lung; assay: Biodistribution in Wistar rat lung assessed as [3H]labeled drug level at 54 umol/kg, iv after 24 hrs; type: ADME, organism-based; conditions: in vivo
[14] = system: Rattus norvegicus; assay: Biodistribution in Wistar rat assessed as remaining [3H]labeled drug level at 54 umol/kg, iv after 24 hrs; type: ADME, organism-based; conditions: in vivo
[15] = system: Rattus norvegicus; assay: Biodistribution in Wistar rat assessed as remaining [3H]labeled drug level at 54 umol/kg, iv after 5 hrs; type: ADME, organism-based; conditions: in vivo
[16] = system: Rattus norvegicus; assay: Biodistribution in Wistar rat assessed as remaining [3H]labeled drug level at 54 umol/kg, iv after 48 hrs; type: ADME, organism-based; conditions: in vivo
[17] = system: Rattus norvegicus; assay: Biodistribution in Wistar rat assessed as remaining [3H]labeled drug level at 54 umol/kg, iv after 168 hrs; type: ADME, organism-based; conditions: in vivo
[18] = system: Rattus norvegicus; assay: Metabolic stability in Wistar rat assessed as [3-(tert-Butylamino-methyl)-4-fluoro-phenyl]-(7-chloro-1-oxy-quinolin-4-yl)-amine level at 54 umol/kg, iv administered as [3H]labeled drug after 5 hrs; type: ADME, organism-based; conditions: in vivo
[19] = system: Rattus norvegicus; assay: Metabolic stability in Wistar rat assessed as (2S,3S,4S,5R,6S)-6-{2-[5-(7-Chloro-quinolin-4-ylamino)-2-fluoro-benzylamino]-2-methyl-propionyloxy}-3,4,5-trihydroxy-tetrahydro-pyran-2-carboxylic acid level at 54 umol/kg, iv administered as [3H]labeled drug after 5 hrs; type: ADME, organism-based; conditions: in vivo
[20] = Clearance in iv dosed mouse; type: ADME, organism-based; conditions: in vivo
[21] = Oral bioavailability in mouse; type: ADME, organism-based; conditions: in vivo
[22] = Oral bioavailability in rat; type: ADME, organism-based; conditions: in vivo
[23] = Elimination half life in mouse at 10 mg/kg, po administered as single dose; type: ADME, organism-based; parameters: dose 10 mg/kg, route oral; conditions: in vivo, read-out: beta t1/2 (converted)
[24] = biological target: T1, Cytochrome P450 3A4 (Homo sapiens, UniProt P08684); assay: Inhibition of human CYP3A4 using PPR substrate; type: ADME
[25] = biological target: T2, Cytochrome P450 1A2 (Homo sapiens, UniProt P05177); assay: Inhibition of human CYP1A2; type: ADME
T2 sequence (P05177 whole entry): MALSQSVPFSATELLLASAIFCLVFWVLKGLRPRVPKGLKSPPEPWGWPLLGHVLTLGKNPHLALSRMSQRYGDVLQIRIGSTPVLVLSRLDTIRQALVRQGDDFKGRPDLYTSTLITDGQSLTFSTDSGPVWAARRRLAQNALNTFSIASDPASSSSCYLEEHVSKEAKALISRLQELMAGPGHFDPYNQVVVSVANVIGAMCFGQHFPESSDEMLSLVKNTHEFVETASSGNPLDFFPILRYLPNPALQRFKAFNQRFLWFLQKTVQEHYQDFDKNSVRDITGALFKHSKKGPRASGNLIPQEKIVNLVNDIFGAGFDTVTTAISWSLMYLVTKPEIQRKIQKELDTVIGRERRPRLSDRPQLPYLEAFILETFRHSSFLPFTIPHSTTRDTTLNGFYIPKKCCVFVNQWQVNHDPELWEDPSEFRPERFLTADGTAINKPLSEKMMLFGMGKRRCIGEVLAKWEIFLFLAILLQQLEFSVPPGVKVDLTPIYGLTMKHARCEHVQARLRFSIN

[26] = biological target: Cytochrome P450 2D6 (Homo sapiens, UniProt P10635); assay: Inhibition of human CYP2D6; type: ADME
[27] = biological target: T3, Cytochrome P450 2C8 (Homo sapiens, UniProt P10632); assay: Inhibition of human CYP2C8; type: ADME
T3 sequence (P10632 whole entry): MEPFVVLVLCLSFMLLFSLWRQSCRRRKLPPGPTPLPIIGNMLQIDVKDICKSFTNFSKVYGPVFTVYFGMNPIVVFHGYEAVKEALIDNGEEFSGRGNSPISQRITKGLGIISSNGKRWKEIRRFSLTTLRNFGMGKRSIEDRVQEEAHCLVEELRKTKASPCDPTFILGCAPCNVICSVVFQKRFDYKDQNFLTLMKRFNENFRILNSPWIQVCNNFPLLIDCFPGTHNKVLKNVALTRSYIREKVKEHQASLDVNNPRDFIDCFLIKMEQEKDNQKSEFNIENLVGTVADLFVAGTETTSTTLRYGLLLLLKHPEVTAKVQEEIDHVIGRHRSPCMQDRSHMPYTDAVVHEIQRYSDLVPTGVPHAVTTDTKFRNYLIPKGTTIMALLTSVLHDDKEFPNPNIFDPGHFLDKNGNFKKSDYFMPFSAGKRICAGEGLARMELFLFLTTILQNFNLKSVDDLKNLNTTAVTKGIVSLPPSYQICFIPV

[28] = biological target: Cytochrome P450 2C19 (Homo sapiens, UniProt P33261); assay: Inhibition of human CYP2C19; type: ADME
[29] = system: Mus musculus; assay: Toxicity in po dosed mouse assessed as maximal nonlethal dose administered as single dose; type: organism-based; conditions: in vivo
[30] = system: Mus musculus; assay: Toxicity in po dosed mouse assessed as induction of hepatotoxicity at drug dose above no observed adverse effects level; type: organism-based; conditions: in vivo
[31] = Distribution coefficient, log D at pH 7.4; conditions: octanol/water
[32] = system: Plasmodium falciparum; assay: Antimalarial activity against chloroquine-resistant Plasmodium falciparum V1/S; type: functional, organism-based; conditions: V1S
[33] = system: Plasmodium falciparum; assay: Antimalarial activity against chloroquine-resistant Plasmodium falciparum J164; type: functional, organism-based
[34] = system: Plasmodium berghei; assay: Antimalarial activity as reduced parasitaemia against Plasmodium berghei ANKA infected CD1 mice (Mus musculus) perorally dosed daily over 4 days; type: functional; conditions: po, 96 h
[35] = system: Plasmodium yoelii; assay: Antimalarial activity as reduced parasitaemia against Plasmodium yoelii 17X infected CD1 mice (Mus musculus) perorally dosed daily for 4 days; type: functional; conditions: po, 96 h
[36] = biological target: T1, Cytochrome P450 3A4; assay: Inhibition of human CYP3A4 using DEF substrate
[37] = system: Plasmodium falciparum; assay: Antimalarial activity against chloroquine-resistant Plasmodium falciparum K1

T1 sequence (P08684 whole entry): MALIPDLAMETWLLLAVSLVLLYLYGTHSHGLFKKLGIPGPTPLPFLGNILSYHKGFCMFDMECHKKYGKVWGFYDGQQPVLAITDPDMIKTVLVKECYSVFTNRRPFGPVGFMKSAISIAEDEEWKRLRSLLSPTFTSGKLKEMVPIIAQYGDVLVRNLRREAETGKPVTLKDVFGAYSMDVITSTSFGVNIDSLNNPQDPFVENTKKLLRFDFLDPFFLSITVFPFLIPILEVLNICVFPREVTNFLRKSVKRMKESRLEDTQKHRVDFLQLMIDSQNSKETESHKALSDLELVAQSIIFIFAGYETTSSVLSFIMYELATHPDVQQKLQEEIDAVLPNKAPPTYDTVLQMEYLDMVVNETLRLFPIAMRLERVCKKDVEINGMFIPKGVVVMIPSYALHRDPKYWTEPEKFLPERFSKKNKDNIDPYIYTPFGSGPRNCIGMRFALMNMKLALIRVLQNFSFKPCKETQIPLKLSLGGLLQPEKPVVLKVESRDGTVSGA
Cytochrome P450 2D6, sequence (P10635 whole entry): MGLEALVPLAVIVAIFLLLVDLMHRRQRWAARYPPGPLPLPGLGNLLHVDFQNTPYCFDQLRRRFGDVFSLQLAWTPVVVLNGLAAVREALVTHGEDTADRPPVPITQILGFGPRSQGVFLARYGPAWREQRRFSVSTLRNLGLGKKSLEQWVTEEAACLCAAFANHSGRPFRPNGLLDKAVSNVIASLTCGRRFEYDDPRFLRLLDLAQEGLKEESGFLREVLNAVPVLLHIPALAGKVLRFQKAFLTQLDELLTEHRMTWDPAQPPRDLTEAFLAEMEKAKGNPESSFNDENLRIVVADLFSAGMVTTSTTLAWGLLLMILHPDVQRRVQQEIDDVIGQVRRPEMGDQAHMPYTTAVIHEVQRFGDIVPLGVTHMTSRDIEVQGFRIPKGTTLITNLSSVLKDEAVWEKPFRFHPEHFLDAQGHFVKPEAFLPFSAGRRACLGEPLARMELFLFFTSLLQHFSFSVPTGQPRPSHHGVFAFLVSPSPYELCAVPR
Cytochrome P450 2C19, sequence (P33261 whole entry): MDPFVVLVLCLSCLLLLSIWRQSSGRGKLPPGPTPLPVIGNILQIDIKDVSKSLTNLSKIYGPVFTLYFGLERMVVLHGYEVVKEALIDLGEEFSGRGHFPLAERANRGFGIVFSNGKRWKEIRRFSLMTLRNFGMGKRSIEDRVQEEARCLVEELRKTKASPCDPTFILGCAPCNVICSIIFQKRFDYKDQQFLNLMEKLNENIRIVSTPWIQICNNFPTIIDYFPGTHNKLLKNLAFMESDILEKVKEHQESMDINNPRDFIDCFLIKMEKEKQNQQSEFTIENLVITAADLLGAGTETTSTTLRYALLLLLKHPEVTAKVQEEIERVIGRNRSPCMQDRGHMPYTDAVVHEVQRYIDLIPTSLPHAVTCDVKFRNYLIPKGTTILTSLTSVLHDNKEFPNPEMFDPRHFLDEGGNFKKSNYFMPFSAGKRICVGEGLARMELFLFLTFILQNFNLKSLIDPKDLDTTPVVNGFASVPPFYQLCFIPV

Question: Which IC50 [1] does the source give for `CC(C)(C)NCc1cc(Nc2ccnc3cc(Cl)ccc23)ccc1F` here?
Answer: 12.1 nM

Question: What about the IC50 [2] of the same compound?
Answer: 14.6 nM

Question: And the IC50 [3]?
Answer: 25.8 nM

Question: What about the IC50 [4] of the same compound?
Answer: 17.3 nM

Question: What about the IC50 [5] of the same compound?
Answer: 22.4 nM

Question: What about the logP [6] of the same compound?
Answer: 4.74

Question: And the Activity [7]?
Answer: 9.16 %ID

Question: And the Activity [8]?
Answer: 8.06 %ID

Question: And the Drug uptake [9]?
Answer: 12.44 %ID

Question: And the Drug uptake [10]?
Answer: 3.97 %ID

Question: And the Drug uptake [11]?
Answer: 1.48 %ID

Question: And the Drug uptake [12]?
Answer: 6.57 %ID

Question: And the Drug uptake [13]?
Answer: 1.17 %ID

Question: And the Activity [14]?
Answer: 14.76%

Question: What about the Activity [15] of the same compound?
Answer: 38.54%

Question: And the Activity [16]?
Answer: 72.79%

Question: What about the Activity [17] of the same compound?
Answer: 1.22%

Question: What about the Activity [18] of the same compound?
Answer: 3.55%

Question: And the Activity [19]?
Answer: 9.95%

Question: What about the clearance [20] of the same compound?
Answer: 40.4 mL/min/kg

Question: And the bioavailability [21]?
Answer: 37%

Question: And the bioavailability [22]?
Answer: 100%

Question: And the half-life [23]?
Answer: 420 min

Question: And the IC50 [24]?
Answer: Active

Question: What about the IC50 [25] of the same compound?
Answer: 8.8 µM

Question: And the IC50 [26]?
Answer: 300 nM

Question: What about the IC50 [27] of the same compound?
Answer: 9.8 µM

Question: What about the IC50 [28] of the same compound?
Answer: 64 µM

Question: What about the Activity [29] of the same compound?
Answer: 610 mg/kg

Question: What about the Activity [30] of the same compound?
Answer: Toxic

Question: What about the logD [31] of the same compound?
Answer: 2.4

Question: And the IC50 [32]?
Answer: 26.1 nM

Question: And the IC50 [33]?
Answer: 29.2 nM

Question: What about the ED50 [34] of the same compound?
Answer: 5.3 mg/kg

Question: And the ED90 [34]?
Answer: 12.4 mg/kg

Question: And the ED50 [35]?
Answer: 7.7 mg/kg

Question: And the ED90 [35]?
Answer: 10.6 mg/kg

Question: And the IC50 [36]?
Answer: > 100 µM

Question: What about the IC50 [37] of the same compound?
Answer: 22 nM
